Results as given in paper PMC7845594, “Novel Immune Modulators Enhance Caenorhabditis elegans Resistance to Multiple Pathogens” (mSphere, 2021).

System: C. elegans transcriptome
Assay: Transcriptome profiling (Affymetrix microarrays), differentially expressed genes
Format: in vivo, Caenorhabditis elegans
Settings: for Fold Change: downregulated genes
Procedure: To gain additional insight into the effect of LK molecules on C. elegans, young-adult, wild-type worms were treated with each drug at 100 µM for 8 h in the absence of pathogen. RNA was collected, and transcriptome profiling was performed.
Data were determined using Affymetrix microarrays, as described in Materials and Methods. Download Table S3, XLSX file, 0.07 MB.
Transcriptome profiling was performed on ∼6,000 wild-type, young adult worms incubated with either LK molecules or DMSO for 8 h. RNA isolation was performed using TRIzol extraction, followed by cleanup using RNeasy columns according to the manufacturer’s protocol. Each condition was analyzed in triplicate. Microarray data have been deposited in the GEO database, accession number GSE137516. […] Clustering and generation of the heat map was performed using Cluster 3.0 ([98]) and Treeview ([99]), respectively. Fold change of genes were normalized to average fold change of that gene over all clustered conditions. Genes and conditions were clustered using Euclidean distance and average linkages. […] Microarray data for non-LK molecules were collected from GEO omnibus. WormEXP was used as a secondary method for confirming statistical significance of potential pathways stimulated by each of the LK molecules ([100]). Gene ontologies were generated using DAVID ([101], [102]).

[1] = Downregulated genes, Affy_ID 171867_x_at
[2] = Downregulated genes, Affy_ID 176276_s_at

With CCN(CC)/N=N/c1ccc(C(=O)O)cc1 [LK35] the “Fold Change” value (Affy_ID 171811_s_at, listed under genes K01D12.7 (LK34, LK38), C57047 (LK35), K01D12.15 (LK38)) was 0.292, the “Fold Change” value (Affy_ID 171867_x_at, listed under genes C09B9.6, F36H12.7, K07F5.1, R05F9.13, R13H9.2, R13H9.4, T13F2.10, T13F2.11, Y59E9AR.1, Y59E9AR.7, ZK354.1) was 0.2025 and the “Fold Change” value (Affy_ID 171880_x_at, listed under genes C24D10.7 and C24D10.8) was 0.4703. The “Fold Change, gene Y59E9AR.1” value [1] was 0.2025, the “Fold Change, gene Y59E9AR.7” value [1] was 0.2025 and the “Fold Change, gene ZK354.1” value [1] was 0.2025. The “Fold Change, gene ZK354.10” value [1] was 0.2025, the “Fold Change, gene ZK354.11” value [1] was 0.2025 and the “Fold Change, gene ZK354.4” value [1] was 0.2025. For the same molecule, the “Fold Change, gene ZK354.5” value [1] was 0.2025, the “Fold Change, gene ZK131.11” value (Downregulated genes, Affy_ID 171916_s_at) was 0.3792 and the “Fold Change, gene Y59H11AM.1” value (Downregulated genes, Affy_ID 172113_x_at) was 0.2252. The “Fold Change, gene Y71H2AL.C” value (Downregulated genes, Affy_ID 172177_x_at) was 0.4472, the “Fold Change, gene ZK525.1” value (Downregulated genes, Affy_ID 172214_x_at) was 0.281 and the “Fold Change, gene T23B7.1” value (Downregulated genes, Affy_ID 172486_x_at) was 0.3276. For the same molecule, the “Fold Change, gene Y105C5A.13” value (Downregulated genes, Affy_ID 172627_x_at) was 0.07461, the “Fold Change, gene T28H11.6” value (Downregulated genes, Affy_ID 172704_x_at) was 0.2084 and the “Fold Change, gene ZK1248.4” value (Downregulated genes, Affy_ID 172734_x_at) was 0.2437. The “Fold Change, gene ZK546.3” value (Downregulated genes, Affy_ID 172798_x_at) was 0.1152, the “Fold Change, gene ZK131.7” value (Downregulated genes, Affy_ID 172871_x_at) was 0.3252 and the “Fold Change, gene ZK1248.6” value (Downregulated genes, Affy_ID 172887_x_at) was 0.1434. For the same molecule, the “Fold Change, gene ZK546.6” value (Downregulated genes, Affy_ID 172900_x_at) was 0.1383, the “Fold Change, gene ZK1251.6” value (Downregulated genes, Affy_ID 172938_x_at) was 0.1992 and the “Fold Change, gene Y43F8B.2” value (Downregulated genes, Affy_ID 173326_s_at) was 0.3741. The “Fold Change, gene T27E4.7” value (Downregulated genes, Affy_ID 173756_at) was 0.207, the “Fold Change, gene Y54G2A.7” value (Downregulated genes, Affy_ID 174102_at) was 0.2822 and the “Fold Change, gene ZK809.8” value (Downregulated genes, Affy_ID 175557_at) was 0.3895. The “Fold Change, gene ZK112.1” value (Downregulated genes, Affy_ID 175995_at) was 0.2683, the “Fold Change, gene Y119D3B.13” value (Downregulated genes, Affy_ID 176131_at) was 0.2184 and the “Fold Change, gene Y69A2AR.12” value [2] was 0.2706. The “Fold Change, gene Y69A2AR.25” value [2] was 0.2706, the “Fold Change, gene Y71H2AM.13” value (Downregulated genes, Affy_ID 176285_s_at) was 0.4282 and the “Fold Change, gene Y71G12B.4” value (Downregulated genes, Affy_ID 176544_at) was 0.3363. The “Fold Change, gene Y54G2A.14” value (Downregulated genes, Affy_ID 177004_s_at) was 0.3979, the “Fold Change, gene Y73B6BL.24” value (Downregulated genes, Affy_ID 177183_s_at) was 0.3786 and the “Fold Change, gene Y71H2AL.1” value (Downregulated genes, Affy_ID 177190_at) was 0.2701. The “Fold Change, gene ZK669.2” value (Downregulated genes, Affy_ID 179491_at) was 0.1961, the “Fold Change, gene ZK550.2” value (Downregulated genes, Affy_ID 179513_at) was 0.2553 and the “Fold Change, gene T23F4.3” value (Downregulated genes, Affy_ID 179815_at) was 0.0609. For the same molecule, the “Fold Change, gene Y51H4A.7” value (Downregulated genes, Affy_ID 180145_s_at) was 0.2617, the “Fold Change, gene T23F4.1” value (Downregulated genes, Affy_ID 180223_s_at) was 0.03953 and the “Fold Change, gene W04B5.2” value (Downregulated genes, Affy_ID 180561_at) was 0.4474. The “Fold Change, gene ZK484.5” value (Downregulated genes, Affy_ID 182193_at) was 0.3211, the “Fold Change, gene Y44A6C.1” value (Downregulated genes, Affy_ID 182843_at) was 0.3152 and the “Fold Change, gene Y45F10A.5” value (Downregulated genes, Affy_ID 184558_at) was 0.1919. The “Fold Change, gene T23B12.8” value (Downregulated genes, Affy_ID 184855_at) was 0.1557, the “Fold Change, gene Y105C5B.5” value (Downregulated genes, Affy_ID 185106_at) was 0.254 and the “Fold Change, gene W01A11.6” value (Downregulated genes, Affy_ID 186120_at) was 0.4275. For the same molecule, the “Fold Change, gene T27A10.7” value (Downregulated genes, Affy_ID 186153_s_at) was 0.3382, the “Fold Change, gene Y18D10A.23” value (Downregulated genes, Affy_ID 186886_s_at) was 0.3476 and the “Fold Change, gene Y105C5A.24” value (Downregulated genes, Affy_ID 187121_at) was 0.3662. The “Fold Change, gene ZC416.6” value (Downregulated genes, Affy_ID 188470_s_at) was 0.2458, the “Fold Change, gene T25C12.3” value (Downregulated genes, Affy_ID 188823_s_at) was 0.2936 and the “Fold Change, gene ZK593.1” value (Downregulated genes, Affy_ID 189095_at) was 0.3436. The “Fold Change, gene ZK484.2” value (Downregulated genes, Affy_ID 189882_at) was 0.286, the “Fold Change, gene ZK131.4” value (Downregulated genes, Affy_ID 190307_s_at) was 0.2791 and the “Fold Change, gene Y40D12A.2” value (Downregulated genes, Affy_ID 191017_at) was 0.3228. For the same molecule, the “Fold Change, gene W07B8.5” value (Downregulated genes, Affy_ID 191887_s_at) was 0.2934, the “Fold Change, gene Y51A2D.13” value (Downregulated genes, Affy_ID 192992_at) was 0.2251 and the “Fold Change, gene Y69E1A.5” value (Downregulated genes, Affy_ID 193144_at) was 0.316. For the same molecule, the “Fold Change, gene Y111B2A.13” value (Downregulated genes, Affy_ID 193715_at) was 0.4867, the “Fold Change, gene Y48A6B.7” value (Downregulated genes, Affy_ID 193926_at) was 0.205 and the “Fold Change, gene ZK666.7” value (Downregulated genes, Affy_ID 194066_s_at) was 0.1175. The “Fold Change” value (Gene AC3.7, Affy_ID 190879_at) was 0.1754, the “Fold Change” value (Gene B0035.13, Affy_ID 188123_at) was 0.2664 and the “Fold Change” value (Gene C02F5.7, Affy_ID 191772_at) was 0.3854. The “Fold Change” value (Gene C04G2.4, Affy_ID 172853_x_at) was 0.1724, the “Fold Change” value (Gene C05C10.4, Affy_ID 189921_at) was 0.2517 and the “Fold Change” value (Gene C05C12.3, Affy_ID 183355_s_at) was 0.2041. The “Fold Change” value (Gene C06A12.3, Affy_ID 183322_at) was 0.4777, the “Fold Change” value (Gene C06G3.5, Affy_ID 189941_at) was 0.4389 and the “Fold Change” value (Gene C08E3.1, Affy_ID 172309_x_at) was 0.09218. For the same molecule, the “Fold Change” value (Gene C08E3.13, Affy_ID 172565_x_at) was 0.08084, the “Fold Change” value (Gene C08F11.13, Affy_ID 175229_at) was 0.2613 and the “Fold Change” value (Gene C14C6.2, Affy_ID 183566_at) was 0.2902. The “Fold Change” value (Gene C17B7.2, Affy_ID 181325_s_at) was 0.2818, the “Fold Change” value (Gene C18G1.2, Affy_ID 191147_at) was 0.4346 and the “Fold Change” value (Gene C18H9.6, Affy_ID 187412_at) was 0.3068. The “Fold Change” value (Gene C24A3.6, Affy_ID 175541_at) was 0.3015 and the “Fold Change” value (Gene C27H5.4, Affy_ID 181334_s_at) was 0.3156.
